# Test results reported in patent US7678784B2, “Oxime-containing macrocyclic acyl guanidines as β-secretase inhibitors” (Bristol-Myers Squibb Company, priority 2006, dated 2010).
# Biological target: T1, BACE1 enzyme (Homo sapiens, UniProt P56817)
# T1 construct: The HEK293-9B.A1 cell line, which overexpresses the BACE1 enzyme, was derived from HEK293 cells; endogenous in cells; washed 48,000 x g pellet of cell homogenate
# Assay: Radioligand displacement assay with a radiolabeled BACE inhibitor on HEK293-9B.A1 cell homogenate
# Type: binding
# Conditions: displacement of 1 nM tritiated radioligand, HEK293-9B.A1 homogenate, pH 5.0, 1.5 hr at 25° C.; read-out: Activity Rating (Activity based on IC50 values)
# Text: There are a number of methods by which inhibitors of the BACE enzyme can be identified experimentally. The enzyme can be obtained from membrane samples from natural tissues or cultured cells or can be expressed recombinantly in a host cell by well known methods of molecular biology. The whole enzyme or a portion thereof can be expressed, for example, in bacterial, insect or mammalian cells to obtain a catalytically active enzyme species. The enzymatic activity and/or ligand binding capability of the enzyme can be assessed within these membrane samples, or the enzyme can be purified to varying extents. As an illustrative example, the nucleic acid sequence encoding the pro and catalytic domains of human BACE can be appended on the 5′ end with an untranslated and signal sequence from the gene for acetylcholinesterase, and on the 3′ end with a sequence encoding a poly-histidine tag. This cDNA can then be expressed in Drosophila melanogaster S2 cells in which the signal and pro sequences of the transcribed/translated protein are removed by cellular proteases and the catalytic domain, appended by a C-terminal poly-histidine tag, is secreted out into the cellular medium. The enzyme can then be purified from the culture medium by nickel affinity chromatography by methods well known to those trained in the art [Mallender, W. et al., “Characterization of recombinant, soluble beta-secretase from an insect cell expression system.” Mol. Pharmacol. 2001, 59: 619-626]. Similar strategies for expressing and purifying various forms of BACE in bacterial, mammalian and other cell types would be known to one skilled in the art. A preferred method for determining the potency of a test compound in binding to the BACE enzyme is by monitoring the displacement of a suitable radioligand.
# Radioligand displacement assays with a radiolabeled BACE inhibitor (WO 2004 013098, compound 3, where the methoxy group is substituted for C(^3H)3) were carried out using standard methods (Keen, M. (1999) in Receptor Binding Techniques (Walker, J. M. ed) p. 106 Humana Press, Totowa, N.J.). The HEK293-9B.A1 cell line, which overexpresses the BACE1 enzyme, was derived from HEK293 cells (Simmons, N. L. (1990) A cultured human renal epitheloid cell line responsive to vasoactive intestinal peptide. Exp. Physiol. 75:309-19.) by RAGE™ M (Harrington, J. J. et al. (2001) Creation of genome-wide protein expression libraries using random activation of gene expression. Nat. Biotechnol. 19:440-5; U.S. Pat. Nos. 6,410,266 and 6,361,972). T225 flask cultures of HEK293-9B.A1 were grown to 80% confluency in DMEM supplemented with 2 mM L-glutamine, 10 μg/ml penicillin, 10 μg/ml streptomycin, 3 μg/ml puromycin, 100 nM methotrexate, and 10% fetal bovine serum (Invitrogen, Carlsbad, Calif.), harvested, and resuspended at 2×10^8 cells per 10 ml of lysis buffer consisting of 50 mM HEPES pH 7.0 containing a protease inhibitor cocktail of AEBSF 104 μM, aprotinin 80 nM, leupeptin 2 μM, bestatin 4 μM, pepstatin A 1.5 μM, and E-64 1.4 μM (0.1% of protease inhibitor cocktail P8340, Sigma-Aldrich, St. Louis, Mo.) at 4° C. The resuspended cells were homogenized using a Polytron (Brinkman, Westbury, N.Y.) at setting 6 for 10 sec., then centrifuged at 48,000×g for 10 min. The resulting pellet was washed by repeating the resuspension, homogenization and centrifugation steps. The final pellet was resuspended in buffer at 4° C. to yield a total protein concentration of 5 mg/ml, then aliquots were frozen in liquid nitrogen for further storage at −70° C. Immediately before carrying out a binding assay, an aliquot of cell homogenate was thawed and diluted to a concentration of 100 μg/ml in assay buffer consisting of 50 mM HEPES pH 5.0 and 0.1% CHAPSO. […]
# T1 sequence (P56817 46-501): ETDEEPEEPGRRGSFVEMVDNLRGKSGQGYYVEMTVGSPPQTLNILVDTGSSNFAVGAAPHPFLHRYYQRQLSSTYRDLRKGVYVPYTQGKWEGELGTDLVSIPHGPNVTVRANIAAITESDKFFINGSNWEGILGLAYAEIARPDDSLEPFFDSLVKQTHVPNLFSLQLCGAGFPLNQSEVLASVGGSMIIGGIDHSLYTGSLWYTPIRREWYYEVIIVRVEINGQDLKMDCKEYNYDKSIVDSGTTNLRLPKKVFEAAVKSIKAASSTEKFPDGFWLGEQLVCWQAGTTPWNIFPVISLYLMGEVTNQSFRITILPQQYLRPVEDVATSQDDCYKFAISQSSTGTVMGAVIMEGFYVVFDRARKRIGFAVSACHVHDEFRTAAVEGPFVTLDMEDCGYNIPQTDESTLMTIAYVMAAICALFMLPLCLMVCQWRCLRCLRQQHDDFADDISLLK
row,SMILES,IC50
1,"CCON=C1CC(=O)N=C(N)NCc2cc(Cl)c(c(Cl)c2)NC(=O)CNCCCCCCOc2ccc1cc2 [Example 9, 4-Amino-25,28-dichloro-13-oxa-3,5,20,23-tetraazatricyclo[22.2.2.2^9,12]-triaconta-1(26),4,9,11,24,27,29-heptaene-6,8,22-trione 8-(O-ethyloxime)]",< 5 nM
2,"CCON=C1CC(=O)N=C(N)NCc2cc(Cl)c(c(Cl)c2)NC(=O)CNCCC=CCOc2ccc1cc2 (single isomer, unassigned; isomer a) [Example 4, Isomer A of 4-amino-24,27-dichloro-13-oxa-3,5,19,22-tetraazatricyclo-[21.2.2.29,12]nonacosa-1(25),4,9,11,15,23,26,28-octaene-6,8,21-trione 8-(O-ethyloxime)]",5 to 50 nM
3,"CCON=C1CC(=O)N=C(N)NCc2cc(Cl)c(c(Cl)c2)NC(=O)CNCCCC=CCOc2ccc1cc2 (single isomer, unassigned; isomer b) [Example 8, Isomer B of 4-amino-25,28-dichloro-13-oxa-3,5,20,23-tetraazatricyclo-[22.2.2.29,12]triaconta-1(26),4,9,11,15,24,27,29-octaene-6,8,22-trione 8-(O-ethyloxime)]",< 5 nM
4,"CCON=C1CC(=O)N=C(N)NCc2cc(Cl)c(c(Cl)c2)NC(=O)CNCCC=CCOc2ccc1cc2 (single isomer, unassigned; isomer b) [Example 5, Isomer B of 4-amino-24,27-dichloro-13-oxa-3,5,19,22-tetraazatricyclo-[21.2.2.29,12]nonacosa-1(25),4,9,11,15,23,26,28-octaene-6,8,21-trione 8-(O-ethyloxime)]",5 to 50 nM
5,"CCON=C1CC(=O)N=C(N)NCc2cc(Cl)c(c(Cl)c2)NC(=O)CNCCCCOc2ccc1cc2 [Example 3, 4-Amino-23,26-dichloro-13-oxa-3,5,18,21-tetraazatricyclo[20.2.2.2^9,12]-octacosa-1(24),4,9,11,22,25,27-heptaene-6,8,20-trione 8-(O-ethyloxime)]",5 to 50 nM
6,"CCON=C1CC(=O)N=C(N)NCc2cc(Cl)c(c(Cl)c2)NC(=O)CNCCCC=CCOc2ccc1cc2 (single isomer, unassigned; isomer a) [Example 7, Isomer A of 4-amino-25,28-dichloro-13-oxa-3,5,20,23-tetraazatricyclo[22.2.2.29,12]triaconta-1(26),4,9,11,15,24,27,29-octaene-6,8,22-trione 8-(O-ethyloxime)]",< 5 nM
7,"CCON=C1CC(=O)/N=C(\N)NCc2cc(Cl)c(c(Cl)c2)NC(=O)CNCC=CCOc2ccc1cc2 (single isomer, unassigned; isomer a) [Example 1, Isomer A of 4-amino-23,26-dichloro-13-oxa-3,5,18,21-tetraazatricyclo[20.2.2.2^9,12]octacosa-1(24),4,9,11,15,22,25,27-octaene-6,8,20-trione 8-(O-ethyloxime)]",> 50 nM
8,"CCON=C1CC(=O)N=C(N)NCc2cc(Cl)c(c(Cl)c2)NC(=O)CNCCCCCCCOc2ccc1cc2 [Example 11, 4-Amino-26,29-dichloro-13-oxa-3,5,21,24-tetraazatricyclo-[23.2.2.2^9,12]hentriaconta-1(27),4,9,11,25,28,30-heptaene-6,8,23-trione 8-(O-ethyloxime)]",< 5 nM
9,"CCON=C1CC(=O)/N=C(\N)NCc2cc(Cl)c(c(Cl)c2)NC(=O)CNCC=CCOc2ccc1cc2 (single isomer, unassigned; isomer b) [Example 2, Isomer B of 4-amino-23,26-dichloro-13-oxa-3,5,18,21-tetraazatricyclo-[20.2.2.2^9,12]octacosa-1(24),4,9,11,15,22,25,27-octaene-6,8,20-trione 8-(O-ethyloxime)]",> 50 nM
10,CCON=C1CC(=O)N=C(N)NCc2cc(Cl)c(c(Cl)c2)NC(=O)CNCCCCCOc2ccc1cc2 [Example 6],5 to 50 nM
11,"CCON=C1CC(=O)N=C(N)NCc2cc(Cl)c(c(Cl)c2)NC(=O)CNCCCCC=CCOc2ccc1cc2 [Example 10, 4-Amino-26,29-dichloro-13-oxa-3,5,21,24-tetraazatricyclo-[23.2.2.2^9,12]hentriaconta-1(27),4,9,11,15,25,28,30-octaene-6,8,23-trione 8-(O-ethyloxime)]",< 5 nM

# System: not given
# Assay: not given
# Conditions: from C=CCCCCN(CC(=O)Nc1c(Cl)cc(CNC(=NC(=O)CC(=NOCC)c2ccc(OCC=C)cc2)NC(=O)OC(C)(C)C)cc1Cl)C(=O)OC(C)(C)C; rcm bond; Grubbs 1st generation catalyst; dichloromethane; 2.93 mM; 65.0 °C; 2.0 h
row,SMILES,"ring closure, yield of all isomers"
1,CCON=C1CC(=O)N=C(NC(=O)OC(C)(C)C)NCc2cc(Cl)c(c(Cl)c2)NC(=O)CN(C(=O)OC(C)(C)C)CCCCC=CCOc2ccc1cc2,80.5%

# Same assay, conditions: from C=CCCCN(CC(=O)Nc1c(Cl)cc(CNC(=NC(=O)CC(=NOCC)c2ccc(OCC=C)cc2)NC(=O)OC(C)(C)C)cc1Cl)C(=O)OC(C)(C)C; rcm bond; Grubbs 1st generation catalyst; dichloromethane; 2.62 mM; 65.0 °C; 1.5 h
row,SMILES,"ring closure, yield of all isomers"
1,CCON=C1CC(=O)N=C(NC(=O)OC(C)(C)C)NCc2cc(Cl)c(c(Cl)c2)NC(=O)CN(C(=O)OC(C)(C)C)CCCC=CCOc2ccc1cc2,82.9%

# Same assay, conditions: from C=CCCN(CC(=O)Nc1c(Cl)cc(CNC(=NC(=O)CC(=NOCC)c2ccc(OCC=C)cc2)NC(=O)OC(C)(C)C)cc1Cl)C(=O)OC(C)(C)C; rcm bond; Grubbs 1st generation catalyst; dichloromethane; 3.0 mM; 65.0 °C; 4.0 h
row,SMILES,"ring closure, yield of all isomers"
1,CCON=C1CC(=O)N=C(NC(=O)OC(C)(C)C)NCc2cc(Cl)c(c(Cl)c2)NC(=O)CN(C(=O)OC(C)(C)C)CCC=CCOc2ccc1cc2,69.1%

# Same assay, conditions: from C=CCOc1ccc(C(CC(=O)N=C(NCc2cc(Cl)c(NC(=O)CN(CC=C)C(=O)OC(C)(C)C)c(Cl)c2)NC(=O)OC(C)(C)C)=NOCC)cc1; rcm bond; Grubbs 1st generation catalyst; dichloromethane; 2.85 mM; 65.0 °C; 4.0 h
row,SMILES,"ring closure, yield of all isomers"
1,CCON=C1CC(=O)N=C(NC(=O)OC(C)(C)C)NCc2cc(Cl)c(c(Cl)c2)NC(=O)CN(C(=O)OC(C)(C)C)CC=CCOc2ccc1cc2,82.8%
